“And” between values parts separate entries of the source, which are not always exact repeats. Equal values may be shown once. Read-outs that look alike come from different tables or passages of the source.
Assays:
[1] = test system: OMP25–msGFP–HaloTag fusion protein in HEK293T cells; assay: Pulse–chase HaloTag labeling efficiency, SDS–PAGE/in-gel fluorescence; assay type: cell-based; settings: 2 h, mean ± SEM
Procedure: PBS, 2% (v/v) SDS, 1% (v/v) Triton x-100, 10 mM EDTA, and protease inhibitors (2 mM PMSF, aprotinin, leupeptin, and pepstatin A). Samples were then incubated at 50 °C for 3–4 min after the addition of Laemmli sample buffer (SB; Bio-Rad, 1610747) with β-mercaptoethanol (Bio-Rad, 1610710). For protein detection, 10–20 µL of the sample was subjected to SDS-PAGE, using 10% Tris-Glycine gels (TGX) (Bio-Rad, 5671034) with Tris-Glycine buffer (Bio-Rad, 1610732). […]
Quantification of HaloTag labeling efficiency using in-gel fluorescence. HEK293T cells were cultured, incubated and transfected with pF(UG) hSyn HaloTag-TEV-4×GS-msGFP-mito using lipofectamine LTX reagent as described above. To examine saturation of HaloTag, we screened for fluorescence plateau using 1 μM of JF479-HaloTag ligand,4 JF549-HaloTag ligand (2HTL) and […]
(2HTL) and JF608-HaloTag ligand (3HTL) reached a fluorescence plateau, and they were chosen as saturating counter stains or “chase” dyes for examining the labeling efficiency of biotin-JF-HaloTag ligands (13HTL–16HTL). Next, we developed an in-gel assay to independently quantitate labeling efficiencies of 13HTL–16HTL. We used JF549-HaloTag ligand (2HTL) as chase for evaluating biotin-JF608-HaloTag ligand (14HTL), biotin-JF646-HaloTag ligand (15HTL), and biotin-JF635-HaloTag ligand (16HTL). We used JF608-HaloTag ligand (3HTL) as chase for evaluating biotin-JF549-HaloTag ligand (13HTL). Each experiment consisted of testing the biotin variants 13HTL–16HTL at 100 nM and 1 μM with an incubation time of 2 h and a chase labeling incubation of 1 μM for 0.5 h. The 0.5 h chase labeling period was included with the 2 h total incubation. Each experiment consisted of the following conditions: untransfected cells; (A) transduced, but no dye; (B) non-biotinylated variant of primary label at 1 μM for 0.5 h; (C) the nonbiotinylated version of the chase JF dye at 1 μM for 0.5 h; (D) 100 nM of the nonbiotinylated version of the primary label for 2 h; (E) 100 nM of the biotinylated version of primary label for 2 h; (F) 1 μM of the nonbiotinylated version of the primary label for 2 h; (G) 1 μM of the biotinylated version of primary label for 2 h; and (H) 1 μM of the non-biotinylated version of the chase JF dye at 1 μM for 2 h. This last condition H was the same as condition C but with a longer incubation (2 h vs. 0.5 h) to allow independent verification of the chase saturation using 0.5 h incubation. Samples D–G were incubated with a nonbiotinylated chase dye at 1 μM for 0.5 h. Cells were washed and protein lysates were harvested using Bio-Rad SDS-PAGE products as described above. Specifically, cells were lysed using protein lysis buffer as described above, and adding XT Sample Buffer (Bio-Rad, 1610791) and XT Reducing Agent (Bio-Rad, 1610792). Samples were heated at 72 °C for 5 min. Samples were then loaded onto a 4–12% Criterion XT Bis-Tris gel (Bio-Rad, 3450124) and ran at 150 V for approximately 1 h. Gels were then imaged on a Chemidoc MP imager (Bio-Rad) using orange, red, and far-red filters. Bands representing HaloTag ligand were quantified by densitometry using […]
(§1) labeling efficiency calculations, bands representing saturating chase dye fluorescence (e.g., JF549) were compared to saturating primary dye fluorescence allowing estimation of the amount of […]
Where F is the fraction of HaloTag protein labeled, Ce is the experimental chase dye fluorescence signal after incubation with pulse biotin-JF-HaloTag ligand, and Cs is the saturating chase dye fluorescence without incubation with a pulse ligand.
Neuro2a cell culture, labeling, lattice light sheet microscopy (LLSM), and confocal microscopy. Neuro2a cells (ATCC, CCL-131) were cultured in Eagle's minimum essential medium (MEM, phenol red-free; Life Technologies) supplemented with 10% (v/v) fetal bovine serum (FBS), and maintained at 37 °C in a humidified 5% (v/v) CO2 environment. Cells were transiently transfected using nucleofection (Lonza) with plasmids constitutively expressing

[2] = 1:1 (v/v) dioxane–water, cited from earlier work
[3] = set-up: method as in PMID 28869757, PMID 25599551; settings: 10 mM HEPES, pH 7.3; ref 27 and 50; cited from earlier work
[4] = Determination of logD7.4 (miniaturized shake flask, octanol–PBS); assay type: physicochemical; settings: pH 7.4
Procedure: Detailed descriptions of the materials and methods are provided in the supporting information. Multifunctional rhodamine–HaloTag ligands (13HTL–16HTL and 18HTL–20HTL) were synthesized using palladium-catalyzed cross-coupling reactions to install 3-carboxyazetidine moieties onto rhodamine scaffolds, followed by amide bond formation with biotin–PEG2–NH2, (S)-JQ1–PEG2–NH2, or (R)-JQ1–PEG2–NH2. Spectroscopic properties (λabs, λem, ε, and Φf) were determined in 10 mM HEPES, pH 7.3. The lactone–zwitterion equilibrium constants (KL–Z) were measured in 1:1 (v/v) dioxane–water mixtures. Octanol–water distribution coefficients (logD7.4) were determined by miniaturized shake-flask partitioning experiments using PBS (pH 7.4) and 1-octanol. Cell culture experiments employed HEK293T, U2OS, and Neuro2a cells transfected with HaloTag fusion constructs and labeled with ligands (100 nM to 1 μM, 0.5 to 2 h at 37 °C), followed by fluorescence microscopy using confocal or lattice light-sheet microscopy. Affinity purification studies utilized streptavidin magnetic beads to capture biotin-labeled HaloTag conjugates, with analysis by SDS-PAGE and in-gel fluorescence detection. […]
Reported values are averages of at least two measurements.
Determination of logD7.4. The log of distribution coefficients at pH 7.4 was determined in octanol–phosphate-buffered saline (PBS) using a miniaturized shake flask setup described previously.6, 7 Briefly, 150 mL each of octanol and PBS pH 7.4 were stirred vigorously for 12–16 h. The layers were allowed to stand for at least 24 h for phase separation. The separated layers were collected and served as PBS saturated with octanol (PBS*) and octanol saturated with PBS (octanol*). Stock solutions (1 mM or 5 mM) of ligands were prepared in DMSO and diluted in PBS* to obtain 1 μM or 10 μM (3–5 mL) of the standard (std). This standard was used to prepare appropriate dilutions using octanol*, in triplicate, in 2-mL glass vials. The leftover standard was used to determine the standard concentration (Cstd). The vials were vortexed for 1 min and shaken horizontally at 700 rpm for 2 h. The vials were then shaken upright at 150 rpm for 2 h to allow the phases to separate. The octanol* layer was pipetted out, and the PBS* layer was used for further analyses. The concentrations of ligands in the standard and PBS* (CPBS*) were determined via fluorescence measurements of 200 μL of PBS* or std in 96-well plates on the Cytation 5 Multimode Plate Reader (BioTek). For Si-rhodamine containing ligands, 2–20 μL of […]
trifluoroacetic acid was added to each well of the 96-well plate prior to the fluorescence measurements. Reported values are averages of at least two measurements. The logD7.4 was obtained as described previously using equation 2: logD = log *’(" × r − 1. +)*+∗ / (2) […]
where Cstd is the standard concentration in PBS, CPBS* is the concentration in PBS after partitioning, r is the dilution factor of the standard solution, VPBS* is the volume of PBS used in the partitioning, and Voctanol* is the volume of octanol used in the partitioning.
Plasmid construction for mitochondria imaging and affinity purification. HaloTag, amplified from the pHTC HaloTag CMV-neo Vector (Promega; G7711) and monomeric-superfolder green fluorescent protein (msGFP; lab stock), was fused to the mitochondrial targeting signal from OMP25,8 interspacing flexible GS(GSS)4 linkers between each domain by PCR Splicing by Overlap Extension (SOE). This construct was subcloned into hSynapsin promoter bearing a copy of FUGW.9 FUGW was a gift from David Baltimore (Addgene plasmid # 14883; RRID:
Addgene_14883).10 This construct was designated as pF(UG) hSyn HaloTag-TEV-4×GS-msGFP- […]
HEK293T cell culture. HEK293T cells (ATCC) were passaged before 80% confluency by trypsinization (Corning; 25-053-CI) and trituration. The cell suspension was then plated on glass coverslips (Warner instruments; 64-0734, CS-18R17) coated with poly-D-lysine (Thermofisher; […]

[5] = test system: sfGFP–BRD4 in Neuro2a cells expressing coilin–HaloTag; assay: BRD4 translocation to coilin–HaloTag, LLSM; assay type: cell-based
Procedure: The ability of JQ1 ligands to enter living cells and recruit BRD4 to defined genomic regions was evaluated using lattice light sheet fluorescence microscopy (LLSM). Neuro2a cells were transiently transfected with plasmids encoding three fusion proteins: i) HaloTag protein fused to coilin, […]; ii) superfolder GFP–BRD4; and iii) histone H2B–mCherry as a nuclear marker. The Cajal body component coilin localizes in distinct puncta in the nucleus ([62]) compared to the diffuse euchromatic distribution of BRD4. […]
Neuro2a cell culture, labeling, lattice light sheet microscopy (LLSM), and confocal microscopy. […]
Full 3D volumes at multiple stage positions were collected at 2 minute intervals for 90 minutes total. […] The recruitment of histone H3.3 was assessed by imaging after 24 h incubation with 19HTL. […]
LLSM imaging processing. Raw image data volumes were deskewed and rotated, then empirically deconvolved using a Richardson-Lucy maximum likelihood algorithm using experimentally measured PSFs for each color channel for 30 iterations. […] These segmentation masks were then used to isolate each nucleus for further quantitative analyses. […] The amount of BRD4 signal was then assessed in- versus outside HaloTag labeled domains throughout the 90-min time-lapse acquisition. […]

[6] = test system: sfGFP–BRD4 in Neuro2a cells expressing HP1a–HaloTag; assay: BRD4 translocation to HP1a–HaloTag, LLSM; assay type: cell-based; settings: 90 min
Text: Given its lower fluorescence background and more efficacious recruitment of BRD4, we focused on (S)-JQ1–JF635–HaloTag ligand (19HTL) for subsequent experiments. To test the generality of 19HTL in recruiting BRD4, we imaged cells expressing heterochromatin protein 1a (HP1a) fused to HaloTag (Fig. 7A). HP1a is localized within constitutive heterochromatin as its N-terminal chromodomain binds to methylated histone H3 ([65]).
(2HTL) and JF608-HaloTag ligand (3HTL) reached a fluorescence plateau, and they were chosen as saturating counter stains or “chase” dyes for examining the labeling efficiency of biotin-JF-HaloTag ligands (13HTL–16HTL). Next, we developed an in-gel assay to independently quantitate labeling efficiencies of 13HTL–16HTL. […] Bands representing HaloTag ligand were quantified by densitometry using […]
as §1
Where F is the fraction of HaloTag protein labeled, Ce is the experimental chase dye fluorescence signal after incubation with pulse biotin-JF-HaloTag ligand, and Cs is the saturating chase dye fluorescence without incubation with a pulse ligand. […]

Row | Compound | Φf [3] | ε [3] | λabs [3] [nm] | λem [3] [nm] | logD [4] | also measured
1 | O=C(CCCC[C@@H]1SC[C@@H]2NC(=O)N[C@@H]21)NCCOCCOCCCCCCCl [17HTL, biotin–HaloTag ligand, reference compound] | – | – | – | – | – | labeling efficiency ([1]; 100 nM pulse): 32.0 ± 9.3%; labeling efficiency ([1]; 1 µM pulse): 92.1 ± 0.4%
2 | C[Si]1(C)c2cc(N3CCC3)ccc2C2(OC(=O)c3ccccc32)c2ccc(N3CCC3)cc21 [compound 5, Janelia Fluor 646] | 0.54 | 5,000 M^−1cm^−1 | 646 | 664 | 3.98 | KL–Z ([2]; parent dyes, ref 27 and 50): 0.0014
3 | Cc1sc2c(c1C)C(c1ccc(Cl)cc1)=N[C@@H](CC(=O)OC(C)(C)C)c1nnc(C)n1-2 [JQ1, (S)-JQ1, reference compound] | – | – | – | – | – | effect of excess free JQ1 on BRD4 recruitment by 19HTL ([5]; 25 μM (S)-JQ1 with 20 nM 19HTL, coilin–HaloTag, confocal): inhibited BRD4 recruitment
4 | (R)-JQ1–JF635–HaloTag ligand [20HTL] | – | – | – | – | – | BRD4 translocation to HP1a–HaloTag [6]: no GFP–BRD4 recruitment; BRD4 recruitment to coilin–HaloTag sites ([5]; Neuro2a cells, LLSM, 90 min): no GFP–BRD4 recruitment
5 | C[Si]1(C)c2cc(N3CC(F)C3)ccc2C2(OC(=O)c3ccccc32)c2ccc(N3CC(F)C3)cc21 [compound 6, JF635] | 0.66 | ~ 400 M^−1cm^−1 | 635 | 652 | 4.1 | KL–Z [2]: ≈ 0.0001 and 0.0001

From paper PMC12595484, “Optimizing multifunctional fluorescent ligands for intracellular labeling” (Proceedings of the National Academy of Sciences of the …, 2025)
